We go through two compounds from paper PMC11178787, “Development of a natural product optimization strategy for inhibitors against MraY, a promising antibacterial target” (Nature Communications, 2024).

In brackets after ≈: the same amount, converted by molar mass.

What all share (assay): microbe, parasite or virus in culture
The test system of one assay is T1, Enterococcus faecalis 29.
T1 construct: 29
Also noted: CLSI broth microdilution MIC in MHB-II. The conditions noted are these: Enterococcus faecalis, 29, 18 h, read-out: MIC. In a few lines:
(§1)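 MICs were determined by CLSI broth microdilution in MHB-II, with inocula of 5 × 10^5 cfu/mL and 2-fold compound dilutions added from DMSO (<1% final). Plates were incubated 18 h at 37 °C. For stable analogues, the highest value of three trials is reported; other values come from a single trial.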

Assay [1] deals with T2, Staphylococcus aureus #2932.
T2 construct: #2932
Also noted: CLSI broth microdilution MIC in MHB-II. The settings on record: Staphylococcus aureus, 18 h, read-out: MIC. In a few lines:
as §1

In the next assay the test system is T3, Enterococcus faecium 11.
T3 construct: 11
Also noted: CLSI broth microdilution MIC in MHB-II. The conditions noted are these: Enterococcus faecium, 11, 18 h, read-out: MIC. In a few lines:
as §1

The test system of assay [2] is T4, Staphylococcus aureus #2310.
T4 construct: #2310
Also noted: CLSI broth microdilution MIC in MHB-II. The settings on record: Staphylococcus aureus, 18 h, read-out: MIC. In a few lines: as §1

A further assay has as its system T5, Enterococcus faecalis 24.
T5 construct: 24
On the set-up: CLSI broth microdilution MIC in MHB-II. The conditions noted are these: Enterococcus faecalis, 24, 18 h, read-out: MIC. In a few lines: as §1

The subject of another assay is T6, Enterococcus faecalis 27.
T6 construct: 27
On the set-up: CLSI broth microdilution MIC in MHB-II. The conditions noted are these: Enterococcus faecalis, 27, 18 h, read-out: MIC. In short, it runs like this: as §1

Another assay deals with Enterococcus faecium 7. Also noted: CLSI broth microdilution MIC in MHB-II. The settings on record: Enterococcus faecium, 7, 18 h, read-out: MIC. In short, it runs like this: as §1
The next assay has as its system Enterococcus faecium 9. Also noted: CLSI broth microdilution MIC in MHB-II. The conditions noted are these: Enterococcus faecium, 9, 18 h, read-out: MIC. In short, it runs like this:
as §1

A further assay has as its system T7, Enterococcus faecalis 25.
T7 construct: 25
Also noted: CLSI broth microdilution MIC in MHB-II. The settings on record: Enterococcus faecalis, 25, 18 h, read-out: MIC. In a few lines: as §1

The subject of a further assay is T8, Enterococcus faecalis 26.
T8 construct: 26
Also noted: CLSI broth microdilution MIC in MHB-II. The conditions noted are these: Enterococcus faecalis, 26, 18 h, read-out: MIC. In short, it runs like this: as §1

The subject of a further assay is T9, Enterococcus faecium 10.
T9 construct: 10
Also noted: CLSI broth microdilution MIC in MHB-II. The settings on record: Enterococcus faecium, 10, 18 h, read-out: MIC. In short, it runs like this: as §1

Another assay deals with T10, Enterococcus faecalis 30.
T10 construct: 30
Also noted: CLSI broth microdilution MIC in MHB-II. The conditions noted are these: Enterococcus faecalis, 30, 18 h, read-out: MIC. In a few lines:
as §1

The next assay has as its system Enterococcus faecium 2. On the set-up: CLSI broth microdilution MIC in MHB-II. The conditions noted are these: Enterococcus faecium, 2, 18 h, read-out: MIC. In a few lines: as §1
Another assay relates to T11, Enterococcus faecalis 23.
T11 construct: 23
Also noted: CLSI broth microdilution MIC in MHB-II. The settings on record: Enterococcus faecalis, 23, 18 h, read-out: MIC. In short, it runs like this: as §1

The next assay has as its system Enterococcus faecium 3. Also noted: CLSI broth microdilution MIC in MHB-II. The conditions noted are these: Enterococcus faecium, 3, 18 h, read-out: MIC. In a few lines: as §1
Another assay deals with T12, E. cloacae ATCC 13047.
T12 construct: ATCC 13047
The settings on record: Enterobacter cloacae, ATCC13047. As to the method: (§2) MICs were determined by a microdilution broth method as recommended by the CLSI with MHB-II. For MICs of stable analogues, a 2-fold dilution of each compound was prepared in DMSO at 100-fold of the final concentration. The strains were inoculated with 5 × 10^5 cfu/mL in 96-well plates (each 100 μL/well), and 1 μL of DMSO solutions of the samples were added (contained less than 1% DMSO). The plates were incubated at 37 °C for 18 h and then MICs were determined. MICs of stable analogues in Table 1 were the highest value in three trials. MICs in Supplementary Table 1 were determined in one trial.  Fig. 2 Results of biological evaluations of hydrazone library. a General structures of hydrazine fragment moiety are shown. Each hydrazine class are represented by different colours (green; BZ, cyan; PA, grey; AC, yellow; AA, orange; LA). b–h MraY inhibitory activity and antibacterial activity of the hydrazone library. The bar graphs show the relative enzyme activity with DMSO as 100% when the compound is treated at given concentration (b,c; TUN at 100 nM, d,e; MRY at 10 nM, f.g; MRD at 100 nM, h; CAP at 1000 nM. n = 1), with the lower bars indicating higher inhibitory activity. The colour of the bars corresponds to Fig. 2a. […] Data of control compounds (van: vancomycin, col: colistin) are shown left column in each panel. E. faecium ATCC 35667, S. aureus ATCC 29213, P. aeruginosa ATCC 27853, K. pneumoniae ATCC 13883, E. cloacae ATCC 13047, A. baumannii ATCC 19606, E. coli ATCC 25922.

A further assay has as its system T13, E. faecium ATCC 35667.
T13 construct: ATCC 35667
The conditions noted are these: Enterococcus faecium, ATCC35667. As to the method: as §2

For the next assay, the system named is T14, S. aureus ATCC 29213.
T14 construct: ATCC 29213
The conditions noted are these: Staphylococcus aureus, ATCC29213. The method, then: as §2

The test system of a further assay is T15, K. pneumoniae ATCC 13883.
T15 construct: ATCC 13883
The settings on record: Klebsiella pneumoniae, ATCC13883. The method, then: as §2

On to `CC1(C)S[C@@H]2[C@H](NC(=O)[C@H](N)c3ccccc3)C(=O)N2[C@H]1C(=O)O` [ampicillin], for which the MIC with Enterococcus faecalis 29 amounted to 1 µg/mL (≈ 2.86 µM); in assay [1] it was 32 µg/mL (≈ 91.6 µM); in the assay with Enterococcus faecium 11, 128 µg/mL (≈ 366 µM); in assay [2] it was 32 µg/mL (≈ 91.6 µM); in the assay on Enterococcus faecalis 24, 0.5 µg/mL (≈ 1.43 µM); in the assay with Enterococcus faecalis 27, 1 µg/mL (≈ 2.86 µM). Also, the MIC with Enterococcus faecium 7 was 0.5 µg/mL (≈ 1.43 µM); with Enterococcus faecium 9 it was over 128 µg/mL; in the assay on Enterococcus faecalis 25, 1 µg/mL (≈ 2.86 µM); with Enterococcus faecalis 26, 1 µg/mL (≈ 2.86 µM); in the assay with Enterococcus faecium 10 it was over 128 µg/mL; in the assay with Enterococcus faecalis 30, 0.5 µg/mL (≈ 1.43 µM). The MIC in the assay with Enterococcus faecium 2 was 128 µg/mL (≈ 366 µM); with Enterococcus faecalis 23 it was 1 µg/mL (≈ 2.86 µM); with Enterococcus faecium 3 it was over 128 µg/mL; against E. cloacae ATCC 13047 it was over 50 µM; against E. faecium ATCC 35667 it was under 0.5 µM; in the assay with S. aureus ATCC 29213, 5 µM (≈ 1.75 µg/mL). In addition, the MIC in the assay on K. pneumoniae ATCC 13883 was over 50 µM.

As for `CN[C@H](CC(C)C)C(=O)N[C@H]1C(=O)N[C@@H](CC(N)=O)C(=O)N[C@H]2C(=O)N[C@H]3C(=O)N[C@H](C(=O)N[C@H](C(=O)O)c4cc(O)cc(O)c4-c4cc3ccc4O)[C@H](O)c3ccc(c(Cl)c3)Oc3cc2cc(c3O[C@@H]2O[C@H](CO)[C@@H](O)[C@H](O)[C@H]2O[C@H]2C[C@](C)(N)[C@H](O)[C@H](C)O2)Oc2ccc(cc2Cl)[C@H]1O` [vancomycin], the MIC stood at 1 µg/mL (≈ 0.69 µM) with Enterococcus faecalis 29; 2 µg/mL (≈ 1.38 µM) in assay [1]; 1 µg/mL (≈ 0.69 µM) in the assay with Enterococcus faecium 11; 2 µg/mL (≈ 1.38 µM) in [2]; 1 µg/mL (≈ 0.69 µM) in the assay with Enterococcus faecalis 24; 1 µg/mL (≈ 0.69 µM) in the assay with Enterococcus faecalis 27. Also, the MIC with Enterococcus faecium 7 was 0.5 µg/mL (≈ 0.345 µM); in the assay with Enterococcus faecium 9 it was 1 µg/mL (≈ 0.69 µM); with Enterococcus faecalis 25, 1 µg/mL (≈ 0.69 µM); with Enterococcus faecalis 26, 1 µg/mL (≈ 0.69 µM); with Enterococcus faecium 10 it was 1 µg/mL (≈ 0.69 µM); with Enterococcus faecalis 30, 1 µg/mL (≈ 0.69 µM). For the same compound, the MIC is 1 µg/mL (≈ 0.69 µM) in the assay on Enterococcus faecium 2; 1 µg/mL (≈ 0.69 µM) with Enterococcus faecalis 23; 1 µg/mL (≈ 0.69 µM) with Enterococcus faecium 3; over 50 µM in the assay with E. cloacae ATCC 13047; under 0.5 µM in the assay with E. faecium ATCC 35667; under 0.5 µM in the assay on S. aureus ATCC 29213. The compound further showed an MIC against K. pneumoniae ATCC 13883 of over 50 µM.
